The values that follow come from patent US10669235B2, “Indole derivatives and their use as protein kinase inhibitors” (RESPIVERT LIMITED, priority 2016, dated 2020).

Counter-ions that a name gives are not always drawn.

Usually IC50 stands for the concentration needed to halve the response being measured. As a reminder, the Papp is the rate of passage across a membrane or cell layer, normalised by area and donor concentration. For orientation: Ki means a dissociation constant, usually derived from enzyme kinetics or from competition with a known ligand. Read a low Ki as tighter binding.

Data set [1] addresses T1, PDGFRβ (Homo sapiens (Human), UniProt P09619). Nature of the data set: PDGF-BB induced phosphorylation of PDGFRβ in fibroblasts (MRC5, HTRF). The format is cell-based. The settings on record: MRC5 cells, PDGFBB stimulation; read-out: PDGFBB-induced PDGFRβ phosphorylation in MRC5 cells (IC50). A general note: Time-resolved FRET reads energy transfer from a long-lived donor to a nearby acceptor.

Data set [2] can be described thus: PAMPA permeability assay. Type of data set: in vitro ADME. The conditions noted are these: pH 7, PAMPA; for Papp at 5 h, 10 µM: pH 7, 10 μM.
Data set [3] deals with T1, PDGFRβ. The data set can be described thus: PDGFRβ enzyme inhibition (ADP-Glo assay). Type of data set: biochemical. The conditions noted are these: mean, n = 2 (nintedanib n = 34). (In ADP-Glo the light output rises with the ADP produced.)
The subject of data set [4] is MRC5 cells. The data set can be described thus: Cell viability assay in MRC5 cells (MTT).

T1 sequence (P09619 33-1106): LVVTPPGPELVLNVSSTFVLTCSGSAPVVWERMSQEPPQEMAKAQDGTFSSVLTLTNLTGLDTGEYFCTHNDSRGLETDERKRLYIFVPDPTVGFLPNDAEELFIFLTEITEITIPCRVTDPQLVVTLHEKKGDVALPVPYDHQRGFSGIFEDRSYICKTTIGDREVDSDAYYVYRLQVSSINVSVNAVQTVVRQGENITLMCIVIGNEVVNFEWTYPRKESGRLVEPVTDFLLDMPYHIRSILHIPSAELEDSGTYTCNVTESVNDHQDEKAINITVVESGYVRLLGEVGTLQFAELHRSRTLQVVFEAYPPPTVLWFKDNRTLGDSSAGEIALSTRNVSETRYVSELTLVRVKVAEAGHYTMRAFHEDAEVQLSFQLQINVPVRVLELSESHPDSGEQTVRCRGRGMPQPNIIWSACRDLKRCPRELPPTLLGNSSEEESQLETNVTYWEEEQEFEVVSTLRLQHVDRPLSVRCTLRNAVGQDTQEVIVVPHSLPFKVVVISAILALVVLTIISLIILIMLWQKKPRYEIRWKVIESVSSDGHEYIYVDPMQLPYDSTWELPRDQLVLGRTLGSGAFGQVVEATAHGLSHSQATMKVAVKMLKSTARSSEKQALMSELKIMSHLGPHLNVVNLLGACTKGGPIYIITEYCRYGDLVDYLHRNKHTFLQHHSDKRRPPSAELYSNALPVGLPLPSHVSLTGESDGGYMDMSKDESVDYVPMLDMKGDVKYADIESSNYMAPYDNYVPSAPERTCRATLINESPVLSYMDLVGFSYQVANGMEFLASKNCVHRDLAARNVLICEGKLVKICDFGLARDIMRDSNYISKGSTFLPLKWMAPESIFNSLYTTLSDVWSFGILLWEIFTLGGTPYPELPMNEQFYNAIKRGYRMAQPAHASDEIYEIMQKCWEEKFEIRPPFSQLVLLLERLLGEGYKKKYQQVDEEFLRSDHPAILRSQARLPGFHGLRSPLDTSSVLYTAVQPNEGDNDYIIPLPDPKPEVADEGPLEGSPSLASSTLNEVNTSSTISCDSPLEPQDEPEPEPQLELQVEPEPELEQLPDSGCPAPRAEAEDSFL

For the compound `COC(=O)c1cc2c(cc1C)/C(=C(/Nc1ccc(C(=O)N(CCO)CCN(C)C)cc1)c1ccccc1)C(=O)N2` [Example 32, (Z)-Methyl 3-(((4-((2-(dimethylamino)ethyl)(2-hydroxyethyl)carbamoyl)phenyl)amino)(phenyl)methylene)-5-methyl-2-oxoindoline-6-carboxylate, 0.3 formate], the IC50 in data set [1] is 4.53 nM. In data set [2], this compound had a recovery at 5 hr, 10 μM of 59.6% and a Papp at 5 h, 10 µM of 0.0217 ×10⁻⁶ cm/s. In data set [3], this compound had a Ki of 5.02 nM. Besides, in data set [4], the “Cell viability at 100 nM (%)” value stood at 99.3%, the “Cell viability at 300 nM (%)” value is 129.3% and the “Cell viability at 1000 nM (%)” value was 49.4%.

Consider `COC(=O)c1cc2c(cc1C)/C(=C(/Nc1ccc(C(=O)N3CCC(O)(CN4CCCC4)CC3)cc1)c1ccccc1)C(=O)N2` [Example 37, (Z)-Methyl-3-(((4-(4-hydroxy-4-(pyrrolidin-1-ylmethyl)piperidine-1-carbonyl)phenyl)amino)(phenyl)methylene)-5-methyl-2-oxoindoline-6-carboxylate, formate], for which the IC50 in data set [1] stood at 5.28 nM. In data set [2], this compound displayed a recovery at 5 hr, 10 μM of 68.2% and a Papp at 5 h, 10 µM of 0.0542 ×10⁻⁶ cm/s. In data set [3], this compound registered a Ki of 7.54 nM. Besides, in data set [4], the “Cell viability at 100 nM (%)” value was determined as 93.6%, the “Cell viability at 300 nM (%)” value was found to be 83.4% and the “Cell viability at 1000 nM (%)” value turned out to be 18.4%.

As for `COCCNC(=O)CN1CCN(C(=O)c2ccc(N/C(=C3\C(=O)Nc4cc(C(=O)OC)c(C)cc43)c3ccccc3)cc2)CC1` [Example 39, (Z)-Methyl-3-(((4-(4-(2-((2-methoxyethyl)amino)-2-oxoethyl)piperazine-1-carbonyl)phenyl)amino)(phenyl)methylene)-5-methyl-2-oxoindoline-6-carboxylate], the IC50 in data set [1] is 5.95 nM. Also, in data set [2], the recovery at 5 hr, 10 μM is 85.7% and the Papp at 5 h, 10 µM turned out to be 0.633 ×10⁻⁶ cm/s. The inhibitory constant (Ki) in data set [3] turned out to be 14.1 nM. Moreover, in data set [4], the “Cell viability at 100 nM (%)” value was determined as 96.2%, the “Cell viability at 300 nM (%)” value is given as 73.3% and the “Cell viability at 1000 nM (%)” value came to 36.7%.

For the compound `COC(=O)c1cc2c(cc1C)/C(=C(/Nc1ccc(C(=O)N3CCC(O)(CN4CCOCC4)CC3)cc1)c1ccccc1)C(=O)N2` [Example 45, (Z)-Methyl-3-(((4-(4-hydroxy-4-(morpholinomethyl)piperidine-1-carbonyl)phenyl)amino)(phenyl)methylene)-5-methyl-2-oxoindoline-6-carboxylate], the IC50 in data set [1] was determined as 2.42 nM. In data set [2], this compound yielded a recovery at 5 hr, 10 μM of 77% and a Papp at 5 h, 10 µM of 0.0893 ×10⁻⁶ cm/s. The affinity in data set [3] corresponds to a Ki of 15.1 nM. Moreover, in data set [4], the “Cell viability at 100 nM (%)” value is 80.1%, the “Cell viability at 300 nM (%)” value is recorded as 71.7% and the “Cell viability at 1000 nM (%)” value is 62.8%.

Take `COC(=O)c1cc2c(cc1C)/C(=C(/Nc1ccc(C(=O)NCC3(N(C)C)CCOCC3)cc1)c1ccccc1)C(=O)N2` [Example 36, (Z)-Methyl 3-(((4-(((4-(dimethylamino)tetrahydro-2H-pyran-4-yl)methyl)carbamoyl)phenyl)amino)(phenyl)methylene)-5-methyl-2-oxoindoline-6-carboxylate]: the IC50 in data set [1] worked out at 9.96 nM. In data set [2], this compound yielded a recovery at 5 hr, 10 μM of 77.4% and a Papp at 5 h, 10 µM of 8.96 ×10⁻⁶ cm/s. In addition, the affinity in data set [3], expressed as Ki, was 15.9 nM. In data set [4], the “Cell viability at 100 nM (%)” value amounted to 87.3%, the “Cell viability at 300 nM (%)” value is 77.2% and the “Cell viability at 1000 nM (%)” value is 69.6%.

With `COC(=O)c1cc2c(cc1C)/C(=C(/Nc1ccc(C(=O)NCCCN(C)C)cc1)c1ccccc1)C(=O)N2` [Example 22, (Z)-Methyl 3-(((4-((3-(dimethylamino)propyl)carbamoyl)phenyl)amino)(phenyl)methylene)-5-methyl-2-oxoindoline-6-carboxylate, 0.5 formate], the IC50 in data set [1] was 12.3 nM. In addition, in data set [2], the recovery at 5 hr, 10 μM is 101% and the Papp at 5 h, 10 µM was 0.046 ×10⁻⁶ cm/s. The Ki in data set [3] was 9.29 nM. In data set [4], the “Cell viability at 100 nM (%)” value came to 72.3%, the “Cell viability at 300 nM (%)” value is 58.8% and the “Cell viability at 1000 nM (%)” value is reported as 48.8%.

In the case of `COC(=O)c1cc2c(cc1C)/C(=C(/Nc1ccc(C(=O)NCCCN3CCN(C)CC3)cc1)c1ccccc1)C(=O)N2` [Example 21, (Z)-Methyl-5-methyl-3-(((4-((3-(4-methylpiperazin-1-yl)propyl)carbamoyl)phenyl)amino)(phenyl)methylene)-2-oxoindoline-6-carboxylate, formate], in data set [1], the IC50 stood at 35.1 nM. In data set [2], this compound returned a recovery at 5 hr, 10 μM of 76% and a Papp at 5 h, 10 µM of 0.0442 ×10⁻⁶ cm/s. The Ki in data set [3] turned out to be 6.11 nM. Also, in data set [4], the “Cell viability at 100 nM (%)” value was determined as 139.6%, the “Cell viability at 300 nM (%)” value worked out at 127.3% and the “Cell viability at 1000 nM (%)” value turned out to be 98.8%.

Take `COC(=O)c1cc2c(cc1C)/C(=C(/Nc1ccc(C(=O)NC3CCN(CCO)CC3)cc1)c1ccccc1)C(=O)N2` [Example 13, (Z)-Methyl 3-(((4-((1-(2-hydroxyethyl)piperidin-4-yl)carbamoyl)phenyl)amino) (phenyl)methylene)-5-methyl-2-oxoindoline-6-carboxylate]: the IC50 in data set [1] came out at 1.25 nM. In data set [2], this compound came in with a recovery at 5 hr, 10 μM of 76.3% and a Papp at 5 h, 10 µM of 0.0439 ×10⁻⁶ cm/s. Also, the affinity in data set [3] corresponds to a Ki of 10.4 nM. Also, in data set [4], the “Cell viability at 100 nM (%)” value came to 84.3%, the “Cell viability at 300 nM (%)” value was 93.2% and the “Cell viability at 1000 nM (%)” value was 102.1%.
